In the experiment the target is Human cytomegalovirus protease (Human herpesvirus 5). Description: Inhibitory activity against human cytomegalovirus (HCMV) protease.

Among the data in BindingDB's records for doi:10.1021/jm980131z (Boehringer Ingelheim (Canada), 1998) are IC50 values, retold here.

pIC50: −log10 of the molar value.

`CC(=O)Nc1ccc(CN(C)C(=O)N2C(=O)C[C@@H]2Cc2ccccc2)cc1` [(S)-2-Benzyl-4-oxo-azetidine-1-carboxylic acid (4-acetylamino-benzyl)-methyl-amide] gave a pIC50 of 4.77.

Consider `CC1(C)C(=O)N(C(=O)NCc2ccncc2)[C@@H]1Cc1ccccc1`, for which the pIC50 is less than 3.52.

As to `CN(Cc1ccccc1[N+](=O)[O-])C(=O)N1C(=O)C[C@@H]1Cc1ccccc1` [(S)-2-Benzyl-4-oxo-azetidine-1-carboxylic acid methyl-(2-nitro-benzyl)-amide], the pIC50 was 4.96.

Regarding `O=C1C[C@H](Cc2ccccc2)N1C(=O)N(Cc1ccccc1)C1CC1` [(S)-2-Benzyl-4-oxo-azetidine-1-carboxylic acid benzyl-cyclopropyl-amide], the pIC50 is less than 4.12.

As to `CON(Cc1ccccc1)C(=O)N1C(=O)C[C@@H]1Cc1ccccc1` [(S)-2-Benzyl-4-oxo-azetidine-1-carboxylic acid benzyl-methoxy-amide], the pIC50 is 5.21.

The compound `CN(Cc1ccc(SC(F)(F)F)cc1)C(=O)N1C(=O)C[C@@H]1Cc1ccccc1` [(S)-2-Benzyl-4-oxo-azetidine-1-carboxylic acid methyl-(4-trifluoromethylsulfanyl-benzyl)-amide] had a pIC50 of 5.16.

`CN(Cc1ccc(Cl)cc1)C(=O)N1C(=O)C[C@@H]1Cc1ccccc1` [(S)-2-Benzyl-4-oxo-azetidine-1-carboxylic acid (4-chloro-benzyl)-methyl-amide] gave a pIC50 of 5.16.

The compound `CN(Cc1cccc([N+](=O)[O-])c1)C(=O)N1C(=O)C[C@@H]1Cc1ccccc1` [(S)-2-Benzyl-4-oxo-azetidine-1-carboxylic acid methyl-(3-nitro-benzyl)-amide] showed a pIC50 of 5.16.

Take `CC[C@@H](NC(=O)N1C(=O)C[C@@H]1Cc1ccccc1)c1ccccc1` [(S)-2-Benzyl-4-oxo-azetidine-1-carboxylic acid ((R)-1-phenyl-propyl)-amide]: the pIC50 was 5.59.

Take `O=C1C[C@H](Cc2ccccc2)N1C(=O)NC1CCCCC1` [(S)-2-Benzyl-4-oxo-azetidine-1-carboxylic acid cyclohexylamide]: the pIC50 is 5.08.

For the compound `C[C@@H](NC(=O)N1C(=O)C[C@H]1Cc1ccccc1)c1ccccc1` [(R)-2-Benzyl-4-oxo-azetidine-1-carboxylic acid ((R)-1-phenyl-ethyl)-amide], the pIC50 is less than 4.12.

`CC1(C)C(=O)N(C(=O)NCc2ccncc2)[C@H]1Cc1ccccc1` [(S)-2-Benzyl-3,3-dimethyl-4-oxo-azetidine-1-carboxylic acid (pyridin-4-ylmethyl)-amide] had a pIC50 of less than 4.12.

Turning to `O=C1C[C@H](Cc2ccccc2)N1C(=O)Nc1ccc(F)cc1` [(S)-2-Benzyl-4-oxo-azetidine-1-carboxylic acid (4-fluoro-phenyl)-amide], the pIC50 is 5.43.

`C[C@@H](NC(=O)N1C(=O)C[C@@H]1Cc1ccccc1)c1ccccc1` [(S)-2-Benzyl-4-oxo-azetidine-1-carboxylic acid ((R)-1-phenyl-ethyl)-amide] showed a pIC50 of 5.40.

`CN(Cc1ccc([N+](=O)[O-])cc1)C(=O)N1C(=O)C[C@@H]1Cc1ccccc1` [(S)-2-Benzyl-4-oxo-azetidine-1-carboxylic acid methyl-(4-nitro-benzyl)-amide] showed a negative-log IC50 (pIC50) of 5.82.

Compound `O=C1C[C@H](Cc2ccccc2)N1C(=O)NCc1ccccn1` [(S)-2-Benzyl-4-oxo-azetidine-1-carboxylic acid (pyridin-2-ylmethyl)-amide] showed a negative-log IC50 (pIC50) of 4.48.

In turn, `CN(Cc1ccc(C#N)cc1)C(=O)N1C(=O)C[C@@H]1Cc1ccccc1` [(S)-2-Benzyl-4-oxo-azetidine-1-carboxylic acid (4-cyano-benzyl)-methyl-amide] gave a pIC50 of 5.22.

Compound `O=C1C[C@H](Cc2ccccc2)N1C(=O)N(Cc1ccccc1)OCc1ccccc1` [(S)-2-Benzyl-4-oxo-azetidine-1-carboxylic acid benzyl-benzyloxy-amide] showed a pIC50 of 4.89. Compared with the last compound, the pIC50 is 0.33 log units lower.

Turning to `COc1ccc(NC(=O)N2C(=O)C[C@@H]2Cc2ccccc2)cc1` [(S)-2-Benzyl-4-oxo-azetidine-1-carboxylic acid (4-methoxy-phenyl)-amide], the negative-log IC50 (pIC50) was 5.41.

In the case of `CC(C)c1ccc(CN(C)C(=O)N2C(=O)C[C@@H]2Cc2ccccc2)cc1` [(S)-2-Benzyl-4-oxo-azetidine-1-carboxylic acid (4-isopropyl-benzyl)-methyl-amide], the pIC50 was 5.19.

As to `Cc1ccc(NC(=O)N2C(=O)C[C@@H]2Cc2ccccc2)cc1` [(S)-2-Benzyl-4-oxo-azetidine-1-carboxylic acid p-tolylamide], the pIC50 is 5.28. This pIC50 and that of the compound before are within 0.2 log units of each other.

As to `O=C1C[C@H](Cc2ccccc2)N1C(=O)NCc1cccnc1` [(S)-2-Benzyl-4-oxo-azetidine-1-carboxylic acid (pyridin-3-ylmethyl)-amide], the pIC50 is 5.00. Compared with the last compound, the pIC50 is 0.28 log units lower.

`O=C1C[C@H](Cc2ccccc2)N1C(=O)NCc1ccncc1` [(S)-2-Benzyl-4-oxo-azetidine-1-carboxylic acid (pyridin-4-ylmethyl)-amide] showed a pIC50 of 4.92.

Regarding `CCC[C@@H](NC(=O)N1C(=O)C[C@@H]1Cc1ccccc1)c1ccccc1` [(S)-2-Benzyl-4-oxo-azetidine-1-carboxylic acid ((R)-1-phenyl-butyl)-amide], the pIC50 is 5.47.

`C[C@H](NC(=O)N1C(=O)C[C@@H]1Cc1ccccc1)c1ccccc1` [(S)-2-Benzyl-4-oxo-azetidine-1-carboxylic acid ((S)-1-phenyl-ethyl)-amide] gave a pIC50 of 4.38.

Turning to `CN(Cc1ccc(S(=O)(=O)C(F)(F)F)cc1)C(=O)N1C(=O)C[C@@H]1Cc1ccccc1` [(S)-2-Benzyl-4-oxo-azetidine-1-carboxylic acid methyl-(4-trifluoromethanesulfonyl-benzyl)-amide], the pIC50 is 5.37.

`CN(Cc1ccc(N)cc1)C(=O)N1C(=O)C[C@@H]1Cc1ccccc1` [(S)-2-Benzyl-4-oxo-azetidine-1-carboxylic acid (4-amino-benzyl)-methyl-amide] gave a pIC50 of 4.70. This pIC50 is 0.67 log units lower than that of the compound before.

`CS[C@@H]1C(=O)N(C(=O)NCc2ccncc2)[C@H]1Cc1ccccc1` [(2S,3S)-2-Benzyl-3-methylsulfanyl-4-oxo-azetidine-1-carboxylic acid (pyridin-4-ylmethyl)-amide] gave a pIC50 of 5.16.

Consider `Cc1ccc(CN(C)C(=O)N2C(=O)C[C@@H]2Cc2ccccc2)cc1` [(S)-2-Benzyl-4-oxo-azetidine-1-carboxylic acid methyl-(4-methyl-benzyl)-amide], for which the pIC50 is 5.05.

In turn, `O=C1C[C@H](Cc2ccccc2)N1C(=O)NCc1ccccc1` [(S)-2-Benzyl-4-oxo-azetidine-1-carboxylic acid benzylamide] had a pIC50 of 5.00. This pIC50 and that of the compound before are within 0.2 log units of each other.

As a reminder, the pIC50 is −log10 of the IC50, conventionally taken in molar units. Read a low pIC50 as a large IC50.
